One assay has as its system MDA-MB-231. Briefly: MTs growth inhibition assay, MDA-MB-231. Format: cell-based. Conditions: Homo sapiens, Wnt/β-catenin-hyperactive, 72 h, read-out: MTs IC50 ± SD MDA-MB-231. On the procedure: (§1) MTs cancer cell growth inhibition assays were conducted for 4 and 5. Three cancer cell lines with hyperactive Wnt/β-catenin signaling, SW480, HCT116, and MDA-MB-231. MTs cell viability assay. Colorectal cancer cell lines, SW480 and HCT116, and triple-negative breast cancer cell line MDA-MB-231 were seeded in 96-well plates at 4×10^3 cells/well, maintained overnight at 37° C., and incubated in the presence of 4 and 5 at various concentrations. Cell viability was monitored after 72 h using a freshly prepared mixture of 1 part phenazine methosulfate (PMS, Sigma) solution (0.92 mg/mL) and 19 parts 3-(4,5-dimethylthiazol-2-yl)-5-(3-carboxymethoxyphenyl)-2-(4-sulfophenyl)-2H-tetrazolium (MTs, Promega) solution (2 mg/mL). Cells were incubated in 10 μL of this solution at 37° C. for 3 h, and A490 was measured. The effect of each compound is expressed as the concentration required to reduce A490 by 50% (IC50) relative to vehicle-treated cells. Experiments were performed in triplicate.

For a further assay, the system named is SW480. Kind of assay: MTs growth inhibition assay, SW480. Conditions: Homo sapiens, Wnt/β-catenin-hyperactive, 72 h, read-out: MTs IC50 ± SD SW480. Format: cell-based. On the procedure: as §1
In another assay the test system is HCT116. Briefly: MTs growth inhibition assay, HCT116. Format: cell-based. Conditions: Homo sapiens, HCT-116; Wnt/β-catenin-hyperactive, 72 h; read-out: MTs IC50 ± SD HCT116. Here is the method: as §1
Another assay addresses T1, β-catenin/E-cadherin (Homo sapiens, UniProt P35222).
T1 construct: Full-length β-catenin and (residues 1-781) were cloned into a pET-28b vector carrying a C-terminal 6× histidine; made in house; host or cells: E. coli BL21 DE3
T1 sequence (P35222 1-781): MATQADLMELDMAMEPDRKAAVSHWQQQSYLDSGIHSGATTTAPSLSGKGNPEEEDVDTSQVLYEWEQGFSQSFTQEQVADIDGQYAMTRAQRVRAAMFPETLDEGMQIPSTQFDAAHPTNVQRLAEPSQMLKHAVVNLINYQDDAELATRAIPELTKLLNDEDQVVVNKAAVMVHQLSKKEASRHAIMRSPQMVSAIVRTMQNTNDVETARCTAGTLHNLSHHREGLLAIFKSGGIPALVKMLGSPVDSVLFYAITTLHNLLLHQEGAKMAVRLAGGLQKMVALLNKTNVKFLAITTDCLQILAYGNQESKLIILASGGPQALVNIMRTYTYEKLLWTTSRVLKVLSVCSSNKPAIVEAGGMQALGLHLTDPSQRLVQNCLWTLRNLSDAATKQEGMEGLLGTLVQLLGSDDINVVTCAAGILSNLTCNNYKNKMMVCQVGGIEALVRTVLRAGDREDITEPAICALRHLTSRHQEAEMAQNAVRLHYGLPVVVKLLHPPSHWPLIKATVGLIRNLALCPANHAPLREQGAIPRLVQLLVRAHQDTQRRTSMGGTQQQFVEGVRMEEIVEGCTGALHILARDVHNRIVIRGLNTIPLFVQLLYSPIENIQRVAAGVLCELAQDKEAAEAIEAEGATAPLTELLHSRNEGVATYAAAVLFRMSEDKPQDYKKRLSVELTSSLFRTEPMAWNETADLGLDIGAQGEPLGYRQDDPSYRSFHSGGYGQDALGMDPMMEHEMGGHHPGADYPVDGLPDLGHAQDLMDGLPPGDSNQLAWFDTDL
Kind of assay: AlphaScreen selectivity assay, β-catenin/E-cadherin PPI. Conditions: Table 2, read-out: Ki ± SD β-catenin/E-cadherin. Format: binding. From the text: Compounds 4 and 5 were further evaluated with their selectivities for the disruption of β-catenin/BCL9 over β-catenin/E-cadherin interactions using the AlphaScreen selectivity assay (Zhang, M.; Wisniewski, J. A.; Ji, H AlphaScreen selectivity assay for, β-catenin/B-cell lymphoma 9 inhibitors. Anal. Biochen. 2015, 469, 43-53.).
BCL9 peptide synthesis and purification. Human BCL9 (residues 350-375), N-terminally biotinylated human BCL9 (residues 350-375), human E-cadherin (residues 824-877), and N-terminally biotinylated human E-cadherin (residues 824-877) were synthesized by InnoPep Inc. (San Diego, Calif., www.innopep.com). All synthesized peptides were purified by HPLC with purity >95%. […]
For the β-catenin/BCL9 assay, 5 nM of biotinylated BCL9 and 40 nM of His6-tagged β-catenin were incubated in assay buffer at 4° C. for 30 min. […] The IC50 value was determined by nonlinear least-square analysis of GraphPad Prism 5.0. The inhibition constant (Ki) values were derived from the IC50 values using a method reported by Nikolovska-Coleska et al (Nikolovska-Coleska, Z.; Wang, R.; Fang, X.; Pan, H.; Tomita, Y.; Li, P.; Roller, P. P.; Krajewski, K.; Saito, N. G.; Stuckey, J. A.; Wang, S. Development and optimization of a binding assay for the XIAP BIR3 domain using fluorescence polarization, Anal. Biochem. 2004, 332, 261-273.). […] The results were expressed as mean±standard deviation. […]
A general note: Alpha assays give light when donor and acceptor beads are brought close together.

SMILES strings stand for the structures. A value given as a limit tells only on which side of the number the result lay.

Broadly, the IC50 is the midpoint of a concentration-inhibition curve.

For `Cl.Cl.O=C(Nc1ccc(O[C@@H]2CCNC2)c(-c2cccc(-c3nn[nH]n3)c2)c1)c1ccc(O[C@H]2CCNC2)c(-c2ccc(F)c(F)c2)c1` [Compound 4, 3′,4′-difluoro-6-(((S)-pyrrolidin-3-yl)oxy)-N-(6-(((R)-pyrrolidin-3-yl)oxy)-3′-(2H-tetrazol-5-yl)-[1,1′-biphenyl]-3-yl)-[1,1′-biphenyl]-3-carboxamide dihydrochloride], the IC50 in the assay on MDA-MB-231 amounted to 73 ± 8.9 µM; with SW480, 41 ± 6.2 µM; in the assay with HCT116, 55 ± 7.4 µM. Also, the Ki on β-catenin/E-cadherin was above 915 µM.

Source of the values: patent publication US20220411414A1, “INHIBITORS FOR THE B-CATENIN/B-CELL LYMPHOMA 9 (BCL9) PROTEIN-PROTEIN INTERACTION” (H. LEE MOFFITT CANCER CENTER AND RESEARCH INSTITUTE, INC., priority 2018, published 2022).
